The results in this text go back to publication PMC8550792, “Evolution of kinase polypharmacology across HSP90 drug discovery” (Cell Chemical Biology, 2021).

Where two headings read alike, the source gives them in different places.

Holding throughout (assay): biochemical
What all share (assay type): biochemical

Experiment [1] addresses T1, 382 unique human kinases (Homo sapiens, UniProt P12931, T341M).
T1 construct: purchased Reaction Biology (HotSpot contract assay)
The conditions noted are these: kinase c-Src (T341M), compound 10 uM; for remaining activity at 10 µM: read-out: % Enzyme Activity (relative to DMSO controls).

Experiment [2] has as its target T2, 382 unique human kinases (Homo sapiens, UniProt Q9P2K8).
T2 construct: purchased Reaction Biology (HotSpot contract assay)
The conditions noted are these: kinase EIF2AK4, compound 10 uM; for remaining activity at 10 µM: read-out: % Enzyme Activity (relative to DMSO controls).

Experiment [3] addresses T3, 382 unique human kinases (Homo sapiens, UniProt Q9HBH9).
T3 construct: purchased Reaction Biology (HotSpot contract assay)
The settings on record: kinase MNK2, compound 10 uM; for remaining activity at 10 µM: read-out: % Enzyme Activity (relative to DMSO controls).

In experiment [4] the target is T4, 382 unique human kinases (Homo sapiens, UniProt P09619).
T4 construct: purchased Reaction Biology (HotSpot contract assay)
T4 sequence (P09619 33-1106): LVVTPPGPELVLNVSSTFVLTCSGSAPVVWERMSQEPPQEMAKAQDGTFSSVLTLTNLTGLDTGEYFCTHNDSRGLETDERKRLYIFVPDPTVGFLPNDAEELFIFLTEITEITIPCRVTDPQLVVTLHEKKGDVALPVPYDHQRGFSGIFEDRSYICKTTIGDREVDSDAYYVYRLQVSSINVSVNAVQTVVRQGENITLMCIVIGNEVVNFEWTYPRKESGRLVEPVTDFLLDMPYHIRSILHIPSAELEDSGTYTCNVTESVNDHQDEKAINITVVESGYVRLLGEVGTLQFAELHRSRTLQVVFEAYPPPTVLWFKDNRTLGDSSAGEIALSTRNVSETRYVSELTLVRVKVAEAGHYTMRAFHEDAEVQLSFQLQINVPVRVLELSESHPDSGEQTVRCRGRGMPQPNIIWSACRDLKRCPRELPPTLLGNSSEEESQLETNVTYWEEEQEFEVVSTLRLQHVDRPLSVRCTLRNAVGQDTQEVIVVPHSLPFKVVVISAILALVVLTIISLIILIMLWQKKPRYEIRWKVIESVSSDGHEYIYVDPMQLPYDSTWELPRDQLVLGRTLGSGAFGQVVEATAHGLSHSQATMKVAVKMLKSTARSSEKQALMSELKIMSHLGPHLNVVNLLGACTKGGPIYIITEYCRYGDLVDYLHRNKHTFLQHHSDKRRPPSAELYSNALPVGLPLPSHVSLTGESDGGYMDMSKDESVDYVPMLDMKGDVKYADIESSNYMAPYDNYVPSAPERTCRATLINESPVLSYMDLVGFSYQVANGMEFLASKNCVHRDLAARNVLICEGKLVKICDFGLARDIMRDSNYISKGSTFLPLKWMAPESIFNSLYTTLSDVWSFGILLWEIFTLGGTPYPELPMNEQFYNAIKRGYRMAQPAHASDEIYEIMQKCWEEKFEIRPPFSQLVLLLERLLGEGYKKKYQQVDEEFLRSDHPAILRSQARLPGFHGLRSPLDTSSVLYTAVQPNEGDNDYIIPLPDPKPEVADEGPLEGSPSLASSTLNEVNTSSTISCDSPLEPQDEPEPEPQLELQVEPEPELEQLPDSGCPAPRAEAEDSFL
The conditions noted are these: kinase PDGFRb, compound 10 uM; for remaining activity at 10 µM: read-out: % Enzyme Activity (relative to DMSO controls).

The target of experiment [5] is T5, 382 unique human kinases (Homo sapiens, UniProt P52333).
T5 construct: purchased Reaction Biology (HotSpot contract assay)
T5 sequence (P52333 1-1124): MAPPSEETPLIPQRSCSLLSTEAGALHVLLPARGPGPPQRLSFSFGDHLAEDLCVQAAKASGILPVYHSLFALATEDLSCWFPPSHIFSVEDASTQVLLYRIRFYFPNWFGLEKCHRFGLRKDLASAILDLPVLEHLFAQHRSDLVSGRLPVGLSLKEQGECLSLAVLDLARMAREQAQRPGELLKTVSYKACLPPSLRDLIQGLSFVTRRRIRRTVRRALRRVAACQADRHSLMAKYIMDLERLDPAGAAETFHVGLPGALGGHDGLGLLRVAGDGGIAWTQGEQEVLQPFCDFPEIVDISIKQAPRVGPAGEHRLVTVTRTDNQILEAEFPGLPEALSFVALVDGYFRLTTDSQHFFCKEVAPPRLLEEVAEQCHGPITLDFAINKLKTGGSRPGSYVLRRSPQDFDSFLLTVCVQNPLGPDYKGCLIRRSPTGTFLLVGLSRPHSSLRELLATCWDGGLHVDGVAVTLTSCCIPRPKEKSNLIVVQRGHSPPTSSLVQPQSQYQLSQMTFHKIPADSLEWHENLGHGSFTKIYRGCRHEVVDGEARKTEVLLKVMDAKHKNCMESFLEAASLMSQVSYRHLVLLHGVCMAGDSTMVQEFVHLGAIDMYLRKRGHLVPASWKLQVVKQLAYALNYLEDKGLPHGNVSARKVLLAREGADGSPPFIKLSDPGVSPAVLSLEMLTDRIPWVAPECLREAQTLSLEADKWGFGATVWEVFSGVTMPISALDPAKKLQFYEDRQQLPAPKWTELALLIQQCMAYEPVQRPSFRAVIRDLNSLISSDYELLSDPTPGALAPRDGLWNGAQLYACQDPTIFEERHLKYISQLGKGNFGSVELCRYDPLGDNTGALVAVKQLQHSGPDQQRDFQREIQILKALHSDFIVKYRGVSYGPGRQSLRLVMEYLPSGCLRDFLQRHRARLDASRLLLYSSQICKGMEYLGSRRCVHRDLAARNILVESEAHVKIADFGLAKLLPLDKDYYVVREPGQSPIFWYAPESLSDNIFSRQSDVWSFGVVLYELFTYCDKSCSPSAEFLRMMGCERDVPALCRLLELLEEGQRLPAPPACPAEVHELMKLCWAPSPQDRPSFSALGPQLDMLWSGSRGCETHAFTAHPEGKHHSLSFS
The settings on record: JAK3, 10 uM; for remaining activity at 10 µM: read-out: % Enzyme Activity (relative to DMSO controls).

The target of experiment [6] is T6, 382 unique human kinases (Homo sapiens, UniProt P17612).
T6 construct: purchased Reaction Biology (HotSpot contract assay)
The settings on record: PKA, 10 uM; for remaining activity at 10 µM: read-out: % Enzyme Activity (relative to DMSO controls).

For experiment [7], the target named is T7, 382 unique human kinases (Homo sapiens, UniProt Q5S007, R1441C).
T7 construct: purchased Reaction Biology (HotSpot contract assay)
The settings on record: LRRK2 (R1441C), [ATP] 50 µM, compound 10 uM; for remaining activity at 10 µM: read-out: % Enzyme Activity (relative to DMSO controls).

In experiment [8] the target is T8, 382 unique human kinases (Homo sapiens, UniProt Q9HCP0).
T8 construct: purchased Reaction Biology (HotSpot contract assay)
T8 sequence (Q9HCP0 whole entry): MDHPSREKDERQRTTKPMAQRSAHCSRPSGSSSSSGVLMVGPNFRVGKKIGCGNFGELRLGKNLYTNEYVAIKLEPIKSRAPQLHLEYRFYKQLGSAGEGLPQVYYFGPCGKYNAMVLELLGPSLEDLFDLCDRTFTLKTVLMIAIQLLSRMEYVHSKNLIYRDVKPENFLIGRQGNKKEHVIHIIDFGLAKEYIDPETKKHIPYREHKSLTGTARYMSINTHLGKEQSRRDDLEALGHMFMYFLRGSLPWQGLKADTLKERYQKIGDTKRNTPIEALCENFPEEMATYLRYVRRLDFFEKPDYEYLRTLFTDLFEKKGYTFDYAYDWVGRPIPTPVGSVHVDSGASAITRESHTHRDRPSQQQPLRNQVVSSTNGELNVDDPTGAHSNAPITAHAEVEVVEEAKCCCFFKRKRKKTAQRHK
The settings on record: CK1g1, 10 uM; for remaining activity at 10 µM: read-out: % Enzyme Activity (relative to DMSO controls).

The target in experiment [9] is T9, 382 unique human kinases (Homo sapiens, UniProt P07949, Y791F).
T9 construct: purchased Reaction Biology (HotSpot contract assay)
T9 sequence (P07949 29-1114 Y791F): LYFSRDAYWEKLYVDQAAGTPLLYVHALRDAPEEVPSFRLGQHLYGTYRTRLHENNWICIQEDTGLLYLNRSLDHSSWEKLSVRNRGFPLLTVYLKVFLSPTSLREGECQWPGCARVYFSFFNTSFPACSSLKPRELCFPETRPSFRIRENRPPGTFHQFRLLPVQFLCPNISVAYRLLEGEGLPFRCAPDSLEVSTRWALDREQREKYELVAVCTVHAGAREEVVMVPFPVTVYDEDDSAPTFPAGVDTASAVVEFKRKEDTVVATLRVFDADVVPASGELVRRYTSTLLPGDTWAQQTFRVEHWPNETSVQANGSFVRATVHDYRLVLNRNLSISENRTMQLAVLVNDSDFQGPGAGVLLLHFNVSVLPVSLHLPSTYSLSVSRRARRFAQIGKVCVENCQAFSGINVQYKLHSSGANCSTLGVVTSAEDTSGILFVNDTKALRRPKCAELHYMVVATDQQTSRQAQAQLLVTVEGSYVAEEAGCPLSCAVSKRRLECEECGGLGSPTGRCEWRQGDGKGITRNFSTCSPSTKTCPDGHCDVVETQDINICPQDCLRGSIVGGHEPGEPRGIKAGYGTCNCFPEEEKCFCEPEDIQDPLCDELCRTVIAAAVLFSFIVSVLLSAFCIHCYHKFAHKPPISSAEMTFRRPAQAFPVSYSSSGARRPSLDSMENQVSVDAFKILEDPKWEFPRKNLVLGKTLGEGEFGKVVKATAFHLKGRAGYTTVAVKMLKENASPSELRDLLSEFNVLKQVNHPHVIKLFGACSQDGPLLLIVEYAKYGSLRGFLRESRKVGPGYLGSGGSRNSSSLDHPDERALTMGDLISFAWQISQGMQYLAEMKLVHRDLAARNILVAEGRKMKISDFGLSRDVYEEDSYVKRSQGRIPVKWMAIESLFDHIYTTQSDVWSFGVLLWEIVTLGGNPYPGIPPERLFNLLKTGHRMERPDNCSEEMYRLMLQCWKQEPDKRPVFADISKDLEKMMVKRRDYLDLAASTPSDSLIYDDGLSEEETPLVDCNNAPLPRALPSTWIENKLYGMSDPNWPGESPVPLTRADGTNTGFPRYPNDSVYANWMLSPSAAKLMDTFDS
The conditions noted are these: [ATP] 15 µM, compound 10 uM, read-out: % Enzyme Activity (relative to DMSO controls).

Experiment [10] concerns the target T10, 382 unique human kinases (Homo sapiens, UniProt Q14012).
T10 construct: purchased Reaction Biology (HotSpot contract assay)
The settings on record: CAMK1a, 10 uM; for remaining activity at 10 µM: read-out: % Enzyme Activity (relative to DMSO controls).

T3 sequence (Q9HBH9 whole entry): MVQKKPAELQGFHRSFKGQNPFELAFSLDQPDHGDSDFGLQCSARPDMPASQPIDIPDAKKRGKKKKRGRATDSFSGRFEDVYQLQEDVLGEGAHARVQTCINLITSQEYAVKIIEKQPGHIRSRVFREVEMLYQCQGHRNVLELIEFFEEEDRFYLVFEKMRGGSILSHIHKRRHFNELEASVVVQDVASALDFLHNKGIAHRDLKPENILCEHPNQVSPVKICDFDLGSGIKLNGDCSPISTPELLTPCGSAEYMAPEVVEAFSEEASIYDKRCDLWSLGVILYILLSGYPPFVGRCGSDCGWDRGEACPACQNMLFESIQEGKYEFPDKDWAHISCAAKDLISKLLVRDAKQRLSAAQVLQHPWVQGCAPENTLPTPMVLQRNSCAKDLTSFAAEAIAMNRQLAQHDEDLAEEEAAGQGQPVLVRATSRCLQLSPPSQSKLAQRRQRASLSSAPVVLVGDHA
T10 sequence (Q14012 whole entry): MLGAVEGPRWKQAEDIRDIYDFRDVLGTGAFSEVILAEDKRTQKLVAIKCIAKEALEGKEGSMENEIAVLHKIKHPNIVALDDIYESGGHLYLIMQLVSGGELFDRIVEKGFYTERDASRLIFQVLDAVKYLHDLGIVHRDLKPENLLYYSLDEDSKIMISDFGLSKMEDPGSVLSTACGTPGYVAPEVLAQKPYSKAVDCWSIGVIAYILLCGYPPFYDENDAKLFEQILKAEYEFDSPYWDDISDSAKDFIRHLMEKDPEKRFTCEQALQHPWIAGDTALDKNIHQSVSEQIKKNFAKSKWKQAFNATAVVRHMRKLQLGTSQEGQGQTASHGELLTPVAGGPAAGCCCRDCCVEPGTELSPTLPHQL
T2 sequence (Q9P2K8 whole entry): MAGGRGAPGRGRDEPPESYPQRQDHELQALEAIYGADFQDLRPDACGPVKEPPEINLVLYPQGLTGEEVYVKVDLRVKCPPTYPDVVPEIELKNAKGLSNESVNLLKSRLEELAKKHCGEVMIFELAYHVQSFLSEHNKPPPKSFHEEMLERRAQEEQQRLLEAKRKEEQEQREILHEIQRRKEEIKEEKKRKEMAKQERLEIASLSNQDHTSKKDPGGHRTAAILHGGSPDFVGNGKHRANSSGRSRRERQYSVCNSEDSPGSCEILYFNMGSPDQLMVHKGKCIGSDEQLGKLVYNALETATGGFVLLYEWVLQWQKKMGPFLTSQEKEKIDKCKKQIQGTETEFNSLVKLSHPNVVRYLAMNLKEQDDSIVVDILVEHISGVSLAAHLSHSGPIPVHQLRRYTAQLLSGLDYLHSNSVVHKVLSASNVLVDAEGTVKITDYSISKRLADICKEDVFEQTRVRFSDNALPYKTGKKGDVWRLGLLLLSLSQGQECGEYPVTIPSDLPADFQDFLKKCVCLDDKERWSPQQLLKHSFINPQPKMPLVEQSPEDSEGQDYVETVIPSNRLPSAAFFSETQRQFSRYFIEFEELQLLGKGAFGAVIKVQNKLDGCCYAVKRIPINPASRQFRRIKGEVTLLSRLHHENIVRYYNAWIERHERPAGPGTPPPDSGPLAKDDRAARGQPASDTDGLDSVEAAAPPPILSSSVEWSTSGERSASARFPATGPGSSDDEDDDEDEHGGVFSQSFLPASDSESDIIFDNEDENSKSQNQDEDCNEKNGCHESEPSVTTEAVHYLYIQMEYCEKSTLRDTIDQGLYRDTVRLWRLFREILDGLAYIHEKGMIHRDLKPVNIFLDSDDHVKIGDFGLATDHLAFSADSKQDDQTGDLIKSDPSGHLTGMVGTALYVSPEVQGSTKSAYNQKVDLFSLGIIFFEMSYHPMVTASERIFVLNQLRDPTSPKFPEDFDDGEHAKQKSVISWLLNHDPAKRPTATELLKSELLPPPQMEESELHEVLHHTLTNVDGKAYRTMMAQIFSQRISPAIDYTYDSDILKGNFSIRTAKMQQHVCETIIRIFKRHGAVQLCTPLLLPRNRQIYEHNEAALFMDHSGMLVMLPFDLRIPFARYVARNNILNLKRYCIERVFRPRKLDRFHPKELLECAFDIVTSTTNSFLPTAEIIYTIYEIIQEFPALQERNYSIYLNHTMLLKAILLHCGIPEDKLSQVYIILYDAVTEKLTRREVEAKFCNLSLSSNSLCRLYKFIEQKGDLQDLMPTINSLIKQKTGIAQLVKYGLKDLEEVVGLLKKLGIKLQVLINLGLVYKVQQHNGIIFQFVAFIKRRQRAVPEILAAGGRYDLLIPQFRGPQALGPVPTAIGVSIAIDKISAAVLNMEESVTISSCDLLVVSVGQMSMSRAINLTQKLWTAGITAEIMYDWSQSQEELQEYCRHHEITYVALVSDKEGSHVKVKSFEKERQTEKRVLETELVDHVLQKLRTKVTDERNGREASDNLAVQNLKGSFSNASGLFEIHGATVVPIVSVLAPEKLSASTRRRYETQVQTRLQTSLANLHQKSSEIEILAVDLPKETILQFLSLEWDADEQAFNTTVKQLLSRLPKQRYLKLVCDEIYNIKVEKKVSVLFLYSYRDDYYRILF

Regarding `CC(C)c1cc(-c2n[nH]c(=O)n2-c2ccc3c(ccn3C)c2)c(O)cc1O` [Ganetespib (STA9090)], the remaining activity at 10 µM at 382 unique human kinases [1] turned out to be 86.3%; on 382 unique human kinases [2], 85.7%; at 382 unique human kinases [3], 92%; on 382 unique human kinases [4], 92.1%; at 382 unique human kinases [5], 60.1%.

For `CC(C)c1cc(-c2n[nH]c(=O)n2-c2ccc3c(ccn3C)c2)c(O)cc1O` [Ganetespib], the remaining activity at 10 µM is 91% at 382 unique human kinases [6]; 50.7% at 382 unique human kinases [7]; 95.4% on 382 unique human kinases [8]; 60.9% on 382 unique human kinases [9] (RET (Y791F)); 91.4% at 382 unique human kinases [10].

Consider `CCNC(=O)c1noc(-c2cc(C(C)C)c(O)cc2O)c1-c1ccc(CN2CCOCC2)cc1` [Luminespib (AUY-922)], for which the “% Enzyme Activity (relative to DMSO controls)” value on 382 unique human kinases [1] came out at 97.19%; at 382 unique human kinases [2] it was 112.88%; at 382 unique human kinases [3], 103.84%; at 382 unique human kinases [4], 81.53%; on 382 unique human kinases [5] it was 102.74%. In addition, the remaining activity at 10 µM on 382 unique human kinases [1] was found to be 98.3%; at 382 unique human kinases [2], 116%; at 382 unique human kinases [3], 105%; at 382 unique human kinases [4], 83.2%; at 382 unique human kinases [5], 103%.

On to `CCNC(=O)c1noc(-c2cc(C(C)C)c(O)cc2O)c1-c1ccc(CN2CCOCC2)cc1` [Luminespib], for which the “% Enzyme Activity (relative to DMSO controls)” value was 108.65% at 382 unique human kinases [6], 88.51% on 382 unique human kinases [7], 93.44% at 382 unique human kinases [8] and 103.58% at 382 unique human kinases [10]. The remaining activity at 10 µM on 382 unique human kinases [6] came out at 111%; at 382 unique human kinases [7], 88.8%; at 382 unique human kinases [8] it was 97.5%; at 382 unique human kinases [9] (RET (Y791F)), 100%; at 382 unique human kinases [9] ([…]), 99.9%; at 382 unique human kinases [10], 109%.
